Reference: patent publication US7183108B1, “Selection and uses of lactic acid bacteria strains modulating non-specific immunity” (Compagnie Gervais Danone, priority 1998, dated 2007)

Columns and labels:
Type in all cases: cell-based, human
Caco-2 cells [1] = test: Production of TNF-α and IL-1β by Caco-2 cells (ELISA of culture supernatants); conditions: Caco-2 preactivated with CYTOMIX, with total extract of L. casei; L-NAME 1 mM or PDTC 10 pM (FIG. 3)
Procedure: (§1) Each of the 2 lines was seeded at 2×10^6 cells/well in 24-well plates, in DMEM medium supplemented with 5% of SVF, with 100 U/ml of penicillin, with 100 μg/ml of streptomycin and with 2 mM of L-glutamine. The cells are then incubated for 24 hours in the presence of CYTOMIX, and then for a further 24 hours in the presence of the total extracts of L. casei. For certain experiments, L-NAME (1 mM) or an inhibitor of the NFκB transduction pathway (PDTC: 10 pM) are added at the same time as the bacterial extracts. The culture supernatants are then recovered and the cytokine concentration thereof is determined by ELISA.

HT-29 cells [2] = test: Production of TNF-α and IL-1β by HT-29 cells (ELISA of culture supernatants); conditions: HT-29 preactivated with CYTOMIX, with total extract of L. casei; L-NAME 1 mM or PDTC 10 pM (FIG. 3)
Procedure: as §1

HT-29 cells [3] = test: Production of nitric oxide (nitrite, GRIESS method) by HT-29 colon epithelial cell line; conditions: HT-29, L-NAME 1 mM, in the presence or absence of total extract of L. casei (3% v/v) (FIG. 2)
Procedure: (§2) Each of the 2 lines was seeded at 2×10^5 cells/well in 96-well plates, in DMEM medium supplemented with 5% of SVF, with 100 U/ml of penicillin, with 100 μg/ml of streptomycin and with 2 mM of L-glutamine.
(§3) The cells are pre-incubated for 24 hours at 37° C., 5% CO2, in the presence of CYTOMIX (IL-1β: 10 ng/ml, TNF-α: 25 ng/ml and γ-IFN: 10^3 U/ml mixture). The cells are then incubated for a further 24 hours in the presence or absence of increasing amounts of total extracts of L. casei (in % vol/vol).
(§4) After incubation, the culture supernatants are recovered and frozen, before determining the nitrite concentration. For certain experiments, L-NAME (1 mM), which is an analogue of L-arginine and constitutes a competitive inhibitor specific for NO-synthases, is added at the same time as the extracts of L. casei.
(§5) The amount of NO produced is evaluated by assaying, in the culture supernatants, the stable derivatives of this radical after reaction thereof in aqueous medium: the nitrites and nitrates. The nitrates are, initially, reduced to nitrites with bacteria expressing nitrate reductase, and the nitrites are then assayed using the GRIESS method. […] The absorbances are then determined at 540 nm using a MULTISCAN MCC340 reader (LABSYSTEM).

Caco-2 cells [4] = test: Production of nitric oxide (nitrite, GRIESS method) by Caco-2 colon epithelial cell line; conditions: Caco-2, L-NAME 1 mM, in the presence or absence of total extract of L. casei (3% v/v) (FIG. 2)
Procedure: as §2, §3, §4, §5

COC(=O)[C@@H](N)CCCNC(=N)N[N+](=O)[O-] [L-NAME]
inhibited: effect of inhibitor on production of TNF-α (Caco-2 cells [1]) | effect of inhibitor on production of TNF-α (HT-29 cells [2]) | effect on CYTOMIX-induced production of NO (HT-29 cells [3]) | effect on CYTOMIX-induced production of NO (Caco-2 cells [4])

S=C(S)N1CCCC1 [PDTC]
inhibited: effect of inhibitor on production of TNF-α (Caco-2 cells [1]) | effect of inhibitor on production of TNF-α (HT-29 cells [2])
